Data on 7 compounds can be found in patent publication US11530233B2, “Beta-nicotinate ester nucleotides and processes for preparing same” (Cornell University, priority 2017, dated 2022).

The structures appear in SMILES notation.

In one experiment the test system is HEK293 cells. Briefly: Intracellular NAD+ levels in HEK293 cells after 8 h incubation with NaMN or NR. Conditions: 1 mM, HEK293, FIG. 4. It counts as cell-based, human. As to the method: (§1) The ability of nicotinic acid mononucleotide, NaMN, to serve as an NAD^+ enhancing agent in mammalian cell lines, Neuro2a and HEK293 cells was examined after an 8 h incubation. NaMN was added to cell growth media at a concentration of 1 mM. All cell treatments were done in duplicate. Nicotinamide riboside (NR) at 1 mM concentration was performed as a positive control. Untreated cells served as negative controls. Cells were treated for the allotted time then harvested by trysin detachment and pelleting. Cells were counted by haemocytometer and then lysed by treatment with 100 μL perchloric acid (7%). Lysates were then neutralized by treatment with NaOH and K2PO4 solutions. NAD^+ concentrations were determined by a daphorase-based assay. NAD^+ standards were also run to establish a standard curve. The results are graphically depicted in FIG. 4.

For a further experiment, the system named is Neuro2a cells. In words: Intracellular NAD+ levels in Neuro2a cells after 8 h incubation with NaMN or NR. Conditions: 1 mM, FIG. 4. It counts as cell-based. As to the method: as §1
The test system of another experiment is HEK-293 cells. In words: NAD+ concentration in HEK-293 cells after treatment with nicotinic acid ester mononucleotides (NAD+ cycling assay). It counts as cell-based, human. The conditions noted are these: HEK293, 24 hr incubation. As to the method:
L. et al., Arch. Biochem. Biophys., 175: 627-634 (1976)). The cells were washed with PBS, counted by haemocytometry and pelleted. The cells were then treated with 7% perchloric acid, and then neutralized with 1 M NaOH and 500 mM potassium phosphate pH 8.5. NAD^+ contents were then measured on a plate reader using diaphorase and lactate dehydrogenase using Resazurin as a dye that is reduced to rezarufin (emission 560 nm). NAD^+ levels were quantitated using a standard curve using known NAD^+ concentrations. NAD^+ concentrations are determined to nmol NAD^+/10^6 cells. All values in Table 1 are listed as compared to control.

Turning to `NC(=O)c1ccc[n+]([C@@H]2O[C@H](CO)[C@@H](O)[C@H]2O)c1` [NR, Nicotinamide riboside], the “intracellular NAD^+ content versus untreated cells” value in the experiment with HEK293 cells and with Neuro2a cells was “increased NAD^+ contents in cells” each time.
With `O=C(O)c1ccc[n+]([C@@H]2O[C@H](COP(=O)(O)O)[C@@H](O)[C@H]2O)c1` [NaMN, nicotinic acid mononucleotide], the “intracellular NAD^+ content versus untreated cells” value in the experiment on HEK293 cells and in the experiment on Neuro2a cells was “No intracellular increase in NAD^+” throughout.
Regarding `CCCCCOC(=O)c1ccc[n+]([C@@H]2O[C@H](COP(=O)([O-])O)[C@H](O)[C@@H]2O)c1` [compound 5c, ((2R,3R,4S,5R)-3,4-dihydroxy-5-(3-(pentyloxycarbonyl)pyridin-1-ium-1-yl)tetrahydrofuran-2-yl)methyl hydrogen phosphate], the “NAD^+ Level (% versus control)” value is recorded as 80 ± 21 % versus control in the experiment with HEK-293 cells (25 μM), 105 ± 26 % versus control with HEK-293 cells (100 μM), 171 ± 18 % versus control with HEK-293 cells (200 μM) and 124 ± 27 % versus control in the experiment on HEK-293 cells (500 μM).
With `CCCCCCOC(=O)c1ccc[n+]([C@@H]2O[C@H](COP(=O)([O-])O)[C@H](O)[C@@H]2O)c1` [compound 5d, ((2R,3R,4S,5R)-3,4-dihydroxy-5-(3-(hexyloxycarbonyl)pyridin-1-ium-1-yl)tetrahydrofuran-2-yl)methyl hydrogen phosphate], the entries for the “NAD^+ Level (% versus control)” value in the experiment with HEK-293 cells (25 μM), in the experiment on HEK-293 cells (100 μM) and in the experiment with HEK-293 cells (500 μM) were 136 ± 26 % versus control, 162 ± 15 % versus control and 146 ± 48 % versus control, respectively.
Take `CCCCCCCOC(=O)c1ccc[n+]([C@@H]2O[C@H](COP(=O)([O-])O)[C@H](O)[C@@H]2O)c1` [compound 5e, ((2R,3R,4S,5R)-3,4-dihydroxy-5-(3-(heptyloxycarbonyl)pyridin-1-ium-1-yl)tetrahydrofuran-2-yl)methyl hydrogen phosphate]: the “NAD^+ Level (% versus control)” value with HEK-293 cells (25 μM) was determined as 152 ± 19 % versus control; with HEK-293 cells (100 μM), 150 ± 11 % versus control; in the experiment with HEK-293 cells (500 μM), 123 ± 21 % versus control.
Take `CCCCCCCCOC(=O)c1ccc[n+]([C@@H]2O[C@H](COP(=O)([O-])O)[C@H](O)[C@@H]2O)c1` [compound 5f, ((2R,3R,4S,5R)-3,4-dihydroxy-5-(3-(octyloxycarbonyl)pyridin-1-ium-1-yl)tetrahydrofuran-2-yl)methyl hydrogen phosphate]: in the experiment on HEK-293 cells (200 μM), the “NAD^+ Level (% versus control)” value was 90 ± 8.7 % versus control.
Turning to `CCCCOC(=O)c1ccc[n+]([C@@H]2O[C@H](COP(=O)([O-])O)[C@H](O)[C@@H]2O)c1` [compound 5b, ((2R,3R,4S,5R)-3,4-dihydroxy-5-(3-(butoxycarbonyl)pyridin-1-ium-1-yl)tetrahydrofuran-2-yl)methyl hydrogen phosphate], the “NAD^+ Level (% versus control)” value in the experiment with HEK-293 cells (25 μM) is 104 ± 29 % versus control; in the experiment with HEK-293 cells (100 μM), 165 ± 31 % versus control; in the experiment with HEK-293 cells (500 μM), 103 ± 32 % versus control.
